Measured values taken from patent US9062124B2, “GIP-based mixed agonists for treatment of metabolic disorders and obesity” (priority 2008, dated 2015).
Where a SMILES comes first, the peptide text is derived from it. [ ]: non-standard residue; d: D form. The star is where a group is joined. Stearoyl = CCCCCCCCCCCCCCCCCC(=O)*; Palmitoyl = CCCCCCCCCCCCCCCC(=O)*; Myristoyl = CCCCCCCCCCCCCC(=O)*; Aib = CC(C)(N)C(=O)O

Experiments:
Assay type in all cases: cell-based
glucagon receptor = target: T1, glucagon receptor (Homo sapiens, UniProt P47871); assay: cAMP synthesis functional assay (firefly luciferase reporter in HEK293 cells), glucagon receptor; conditions: for EC50: Glucagon Receptor EC50, cAMP luciferase reporter assay as in Example 16
T1 construct: expressed in transfected cells; host or cells: HEK293

GLP-1 receptor = target: T2, GLP-1 receptor (Homo sapiens, UniProt P43220); assay: cAMP synthesis functional assay (firefly luciferase reporter in HEK293 cells), GLP-1 receptor
T2 construct: expressed in transfected cells; host or cells: HEK293

GIP receptor = target: T3, GIP receptor (Homo sapiens, UniProt P48546); assay: cAMP synthesis functional assay (firefly luciferase reporter in HEK293 cells), GIP receptor; conditions: for EC50: GIP Receptor EC50, cAMP luciferase reporter assay as in Example 16
T3 construct: expressed in transfected cells; host or cells: HEK293
T3 sequence (P48546 22-466): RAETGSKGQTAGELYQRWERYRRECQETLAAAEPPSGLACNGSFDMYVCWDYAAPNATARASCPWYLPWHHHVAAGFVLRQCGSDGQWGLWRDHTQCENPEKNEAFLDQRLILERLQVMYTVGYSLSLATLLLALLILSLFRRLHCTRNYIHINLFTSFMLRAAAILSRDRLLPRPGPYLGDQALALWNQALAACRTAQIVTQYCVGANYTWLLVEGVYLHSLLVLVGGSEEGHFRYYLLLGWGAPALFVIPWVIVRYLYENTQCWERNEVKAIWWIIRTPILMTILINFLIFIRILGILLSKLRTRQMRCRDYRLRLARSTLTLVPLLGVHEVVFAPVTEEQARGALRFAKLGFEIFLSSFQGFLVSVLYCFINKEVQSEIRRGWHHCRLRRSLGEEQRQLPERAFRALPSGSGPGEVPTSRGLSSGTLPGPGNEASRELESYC

[1] = relative to the standard (Std.) EC50 of the same run
[2] = GLP-1 Receptor EC50, cAMP luciferase reporter assay as in Example 16

T1 sequence (P47871 26-477): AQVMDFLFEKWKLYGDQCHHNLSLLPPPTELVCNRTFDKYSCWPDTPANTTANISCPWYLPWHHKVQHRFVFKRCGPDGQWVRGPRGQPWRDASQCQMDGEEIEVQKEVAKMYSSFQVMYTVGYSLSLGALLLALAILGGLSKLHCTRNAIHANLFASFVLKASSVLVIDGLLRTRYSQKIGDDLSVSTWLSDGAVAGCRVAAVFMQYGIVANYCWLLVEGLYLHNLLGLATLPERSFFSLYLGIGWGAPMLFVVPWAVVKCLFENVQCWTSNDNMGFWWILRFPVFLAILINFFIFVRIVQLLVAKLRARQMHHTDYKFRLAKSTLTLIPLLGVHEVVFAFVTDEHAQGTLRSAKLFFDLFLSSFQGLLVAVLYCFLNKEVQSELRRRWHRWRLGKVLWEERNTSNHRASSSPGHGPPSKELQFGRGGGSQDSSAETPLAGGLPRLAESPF
T2 sequence (P43220 24-463, species assumed): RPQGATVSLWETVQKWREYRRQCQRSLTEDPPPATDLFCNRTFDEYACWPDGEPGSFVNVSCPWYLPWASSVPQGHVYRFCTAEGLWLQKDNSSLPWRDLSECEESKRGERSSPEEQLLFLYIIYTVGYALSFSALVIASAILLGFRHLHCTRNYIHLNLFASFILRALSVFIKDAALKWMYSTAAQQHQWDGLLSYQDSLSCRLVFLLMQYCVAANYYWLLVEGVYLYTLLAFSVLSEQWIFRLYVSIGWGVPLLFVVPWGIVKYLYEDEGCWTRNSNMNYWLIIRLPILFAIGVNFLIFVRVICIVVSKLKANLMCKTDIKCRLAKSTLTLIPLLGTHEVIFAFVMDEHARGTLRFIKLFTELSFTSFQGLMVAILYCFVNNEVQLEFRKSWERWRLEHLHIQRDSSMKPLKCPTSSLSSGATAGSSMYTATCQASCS

| SMILES | Glucagon Receptor relative activity (glucagon receptor; Table 2) | EC50 (GLP-1 receptor; GLP-1 Receptor EC50, nM, Table 2) | GLP-1 Receptor relative activity (GLP-1 receptor; Table 2) | GIP Receptor relative activity (GIP receptor; Table 2) | Glucagon Receptor relative activity (glucagon receptor; [1]) | EC50 (GLP-1 receptor; [2]) | GLP-1 Receptor relative activity (GLP-1 receptor; [1]) | EC50 (GIP receptor) | GIP Receptor relative activity (GIP receptor; [1]) | EC50 (glucagon receptor) |
| --- | --- | --- | --- | --- | --- | --- | --- | --- | --- | --- |
| CC[C@H](C)[C@H](NC(=O)[C@H](CO)NC(=O)[C@H](Cc1ccc(O)cc1)NC(=O)[C@H](CC(=O)O)NC(=O)[C@H](CO)NC(=O)[C@@H](NC(=O)[C@H](Cc1ccccc1)NC(=O)[C@@H](NC(=O)CNC(=O)[C@H](CCC(N)=O)NC(=O)C(C)(C)NC(=O)[C@@H](N)Cc1ccc(O)cc1)[C@@H](C)O)[C@@H](C)O)C(=O)N[C@@H](Cc1ccc(O)cc1)C(=O)N[C@@H](CC(C)C)C(=O)N[C@@H](CC(=O)O)C(=O)NC(C)(C)C(=O)N[C@@H](CCC(N)=O)C(=O)N[C@@H](C)C(=O)N[C@@H](C)C(=O)N[C@@H](CCCCN)C(=O)N[C@@H](CCC(=O)O)C(=O)N[C@@H](Cc1ccccc1)C(=O)N[C@H](C(=O)N[C@@H](CC(N)=O)C(=O)N[C@@H](Cc1c[nH]c2ccccc12)C(=O)N[C@@H](CC(C)C)C(=O)N[C@@H](CC(C)C)C(=O)N[C@@H](C)C(=O)NCC(=O)NCC(=O)N1CCC[C@H]1C(=O)N[C@@H](CO)C(=O)N[C@@H](CO)C(=O)NCC(=O)N[C@@H](C)C(=O)N1CCC[C@H]1C(=O)N1CCC[C@H]1C(=O)N1CCC[C@H]1C(=O)N[C@@H](CO)C(=O)N[C@@H](CS)C(N)=O)C(C)C [mt-241] (H-Y[Aib]QGTFTSDYSIYLD[Aib]QAAKEFVNWLLAGGPSSGAPPPSC-NH2; N-terminus assumed) | 3.73% | 0.023 nM | 130.43% | 4.37% | – | – | – | – | – | – |
| CC[C@H](C)[C@H](NC(=O)[C@H](CO)NC(=O)[C@H](Cc1ccc(O)cc1)NC(=O)[C@H](CC(=O)O)NC(=O)[C@H](CO)NC(=O)[C@@H](NC(=O)[C@H](Cc1ccccc1)NC(=O)[C@@H](NC(=O)CNC(=O)[C@H](CCC(=O)O)NC(=O)C(C)(C)NC(=O)[C@@H](N)Cc1ccc(O)cc1)[C@@H](C)O)[C@@H](C)O)C(=O)N[C@@H](Cc1ccc(O)cc1)C(=O)N[C@@H](CC(C)C)C(=O)N[C@@H](CC(=O)O)C(=O)N[C@@H](CCCCN)C(=O)N[C@@H](CCC(N)=O)C(=O)N[C@@H](C)C(=O)N[C@@H](C)C(=O)NC(C)(C)C(=O)N[C@@H](CCC(=O)O)C(=O)N[C@@H](Cc1ccccc1)C(=O)N[C@H](C(=O)N[C@@H](CC(N)=O)C(=O)N[C@@H](Cc1c[nH]c2ccccc12)C(=O)N[C@@H](CC(C)C)C(=O)N[C@@H](CC(C)C)C(=O)N[C@@H](C)C(=O)NCC(=O)NCC(=O)N1CCC[C@H]1C(=O)N[C@@H](CO)C(=O)N[C@@H](CO)C(=O)NCC(=O)N[C@@H](C)C(=O)N1CCC[C@H]1C(=O)N1CCC[C@H]1C(=O)N1CCC[C@H]1C(=O)N[C@@H](CO)C(=O)N[C@@H](CS)C(N)=O)C(C)C [mt-256] | – | – | – | – | 0.12% | 0.0124 nM | 95.97% | 0.0034 nM | 282.35% | – |
| CCCCCCCCCCCCCC(=O)NCCCC[C@H](NC(=O)[C@H](CC(=O)O)NC(=O)[C@H](CO)NC(=O)[C@@H](NC(=O)[C@H](Cc1ccccc1)NC(=O)[C@@H](NC(=O)CNC(=O)[C@H](CCC(=O)O)NC(=O)C(C)(C)NC(=O)[C@@H](N)Cc1ccc(O)cc1)[C@@H](C)O)[C@@H](C)O)C(=O)N[C@@H](CO)C(=O)N[C@H](C(=O)N[C@@H](Cc1ccc(O)cc1)C(=O)N[C@@H](CC(C)C)C(=O)N[C@@H](CC(=O)O)C(=O)N[C@@H](CCCCN)C(=O)N[C@@H](CCC(N)=O)C(=O)N[C@@H](C)C(=O)N[C@@H](C)C(=O)NC(C)(C)C(=O)N[C@@H](CCC(=O)O)C(=O)N[C@@H](Cc1ccccc1)C(=O)N[C@H](C(=O)N[C@@H](CC(N)=O)C(=O)N[C@@H](Cc1c[nH]c2ccccc12)C(=O)N[C@@H](CC(C)C)C(=O)N[C@@H](CC(C)C)C(=O)N[C@@H](C)C(=O)NCC(=O)NCC(=O)N1CCC[C@H]1C(=O)N[C@@H](CO)C(=O)N[C@@H](CO)C(=O)NCC(=O)N[C@@H](C)C(=O)N1CCC[C@H]1C(=O)N1CCC[C@H]1C(=O)N1CCC[C@H]1C(=O)N[C@@H](CO)C(N)=O)C(C)C)[C@@H](C)CC [mt-269] (H-Y[Aib]EGTFTSDK(Myristoyl)SIYLDKQAA[Aib]EFVNWLLAGGPSSGAPPPS-NH2; N-terminus assumed) | – | – | – | – | 0.11% | 0.0136 nM | 144.85% | 0.0057 nM | 140.35% | 183 nM |
| CCCCCCCCCCCCCCCC(=O)NCCCC[C@H](NC(=O)[C@H](CC(=O)O)NC(=O)[C@H](CO)NC(=O)[C@@H](NC(=O)[C@H](Cc1ccccc1)NC(=O)[C@@H](NC(=O)CNC(=O)[C@H](CCC(=O)O)NC(=O)C(C)(C)NC(=O)[C@@H](N)Cc1ccc(O)cc1)[C@@H](C)O)[C@@H](C)O)C(=O)N[C@@H](CO)C(=O)N[C@H](C(=O)N[C@@H](Cc1ccc(O)cc1)C(=O)N[C@@H](CC(C)C)C(=O)N[C@@H](CC(=O)O)C(=O)N[C@@H](CCCCN)C(=O)N[C@@H](CCC(N)=O)C(=O)N[C@@H](C)C(=O)N[C@@H](C)C(=O)NC(C)(C)C(=O)N[C@@H](CCC(=O)O)C(=O)N[C@@H](Cc1ccccc1)C(=O)N[C@H](C(=O)N[C@@H](CC(N)=O)C(=O)N[C@@H](Cc1c[nH]c2ccccc12)C(=O)N[C@@H](CC(C)C)C(=O)N[C@@H](CC(C)C)C(=O)N[C@@H](C)C(=O)NCC(=O)NCC(=O)N1CCC[C@H]1C(=O)N[C@@H](CO)C(=O)N[C@@H](CO)C(=O)NCC(=O)N[C@@H](C)C(=O)N1CCC[C@H]1C(=O)N1CCC[C@H]1C(=O)N1CCC[C@H]1C(=O)N[C@@H](CO)C(N)=O)C(C)C)[C@@H](C)CC [mt-270] (H-Y[Aib]EGTFTSDK(Palmitoyl)SIYLDKQAA[Aib]EFVNWLLAGGPSSGAPPPS-NH2; N-terminus assumed) | – | – | – | – | 0.06% | 0.0093 nM | 211.83% | 0.0049 nM | 163.27% | 306 nM |
| CCCCCCCCCCCCCCCCCC(=O)NCCCC[C@H](NC(=O)[C@H](CC(=O)O)NC(=O)[C@H](CO)NC(=O)[C@@H](NC(=O)[C@H](Cc1ccccc1)NC(=O)[C@@H](NC(=O)CNC(=O)[C@H](CCC(=O)O)NC(=O)C(C)(C)NC(=O)[C@@H](N)Cc1ccc(O)cc1)[C@@H](C)O)[C@@H](C)O)C(=O)N[C@@H](CO)C(=O)N[C@H](C(=O)N[C@@H](Cc1ccc(O)cc1)C(=O)N[C@@H](CC(C)C)C(=O)N[C@@H](CC(=O)O)C(=O)N[C@@H](CCCCN)C(=O)N[C@@H](CCC(N)=O)C(=O)N[C@@H](C)C(=O)N[C@@H](C)C(=O)NC(C)(C)C(=O)N[C@@H](CCC(=O)O)C(=O)N[C@@H](Cc1ccccc1)C(=O)N[C@H](C(=O)N[C@@H](CC(N)=O)C(=O)N[C@@H](Cc1c[nH]c2ccccc12)C(=O)N[C@@H](CC(C)C)C(=O)N[C@@H](CC(C)C)C(=O)N[C@@H](C)C(=O)NCC(=O)NCC(=O)N1CCC[C@H]1C(=O)N[C@@H](CO)C(=O)N[C@@H](CO)C(=O)NCC(=O)N[C@@H](C)C(=O)N1CCC[C@H]1C(=O)N1CCC[C@H]1C(=O)N1CCC[C@H]1C(=O)N[C@@H](CO)C(N)=O)C(C)C)[C@@H](C)CC [mt-271] (H-Y[Aib]EGTFTSDK(Stearoyl)SIYLDKQAA[Aib]EFVNWLLAGGPSSGAPPPS-NH2; N-terminus assumed) | – | – | – | – | 0.17% | 0.0106 nM | 185.85% | 0.0056 nM | 142.86% | 113 nM |
| CC[C@H](C)[C@H](NC(=O)[C@H](CO)NC(=O)[C@H](CCCCN)NC(=O)[C@H](CC(=O)O)NC(=O)[C@H](CO)NC(=O)[C@@H](NC(=O)[C@H](Cc1ccccc1)NC(=O)[C@@H](NC(=O)CNC(=O)[C@H](CCC(=O)O)NC(=O)C(C)(C)NC(=O)[C@@H](N)Cc1ccc(O)cc1)[C@@H](C)O)[C@@H](C)O)C(=O)N[C@@H](Cc1ccc(O)cc1)C(=O)N[C@@H](CC(C)C)C(=O)N[C@@H](CC(=O)O)C(=O)N[C@@H](CCCCN)C(=O)N[C@@H](CCC(N)=O)C(=O)N[C@@H](C)C(=O)N[C@@H](C)C(=O)NC(C)(C)C(=O)N[C@@H](CCC(=O)O)C(=O)N[C@@H](Cc1ccccc1)C(=O)N[C@H](C(=O)N[C@@H](CC(N)=O)C(=O)N[C@@H](Cc1c[nH]c2ccccc12)C(=O)N[C@@H](CC(C)C)C(=O)N[C@@H](CC(C)C)C(=O)N[C@@H](C)C(=O)NCC(=O)NCC(=O)N1CCC[C@H]1C(=O)N[C@@H](CO)C(=O)N[C@@H](CO)C(=O)NCC(=O)N[C@@H](C)C(=O)N1CCC[C@H]1C(=O)N1CCC[C@H]1C(=O)N1CCC[C@H]1C(=O)N[C@@H](CO)C(N)=O)C(C)C [mt-272] (H-Y[Aib]EGTFTSDKSIYLDKQAA[Aib]EFVNWLLAGGPSSGAPPPS-NH2; N-terminus assumed) | – | – | – | – | 0.02% | 1.23 nM | 1.60% | 0.0241 nM | 33.20% | 1060 nM |
